Laboratory results: patent EP4721737A1, “USE OF PHARMACEUTICAL COMPOSITION COMPRISING COMPOUND HAVING BIS(AZANYLYLIDENE) SULFONYL STRUCTURE FOR TREATING ANEMIA-RELATED DISEASES” (Scinnohub Pharmaceutical Co., Ltd., priority 2023, dated 2024)

Experiments:
[1] = molecular target: recombinant human PKR (Homo sapiens, UniProt P30613); experiment: pyruvate kinase (PKR) activity test, activation of recombinant enzyme (fluorescence kit); type: biochemical
Procedure: To test the activation effect of the compound of the present disclosure on recombinant human PKR.
3.1 A recombinant human PKR enzyme solution was prepared at a concentration of 60 ng/well (a 20 µL reaction system), and 5 µL of the solution was added into each well of a black transparent bottom 384-well plate.
3.2 Compound solutions were prepared at different concentrations, with the final concentrations of 1000/300/100 nM (containing 1% DMSO). Each 5 µL of the compound solution was added into the plate in step 3.1 and mixed well. The plate was incubated at room temperature for 10 min.
3.3 A reaction system was prepared according to the instructions of a kit (as shown in the table below), and 10 µL of the reaction system was added into each well of the 384-well plate, and mixed uniformly with the solution in step 3.2.
3.4 The 384-well plate was placed on a microplate reader to detect the fluorescence value at 540/590 nm, where the value was read every 2 minutes and the detection was conducted continuously for 1 hour.
3.5 The Slope value within the detection time was calculated, and the 1% DMSO well was used as a control well to calculate a compound activation rate. Activation rate % = (Slopeofcompoundwell/Slopeofcontrolwell) × 100% [formula]
With the log value of the compound concentration as the X axis and the percentage activation rate as the Y axis, a dose-effect curve was fitted with the log(agonist) vs. response-variable slope of the analysis software GraphPad Prism 5, and the AC50 value of the activity of each compound against PKR was obtained. Y = min + (max−min)/(1+10^(∧)((LogAC50−X)×Hillslope)). [formula]

[2] = molecular target: T1, PKR in ex vivo red blood cells from healthy individuals (Homo sapiens, UniProt P30613); experiment: ex vivo pyruvate kinase (PKR) activity experiment, red blood cells of healthy individuals; type: cell-based; settings: 3 hours co-cultivation
T1 construct: endogenous in cells; host or cells: human red blood cells isolated from fresh peripheral blood of healthy individuals
Procedure: To test the effects of the compound of the present disclosure on PKR activation in ex vivo red blood cells from healthy individuals and patients with thalassemia.
• i. 5 g of glucose, 85 mg of adenine, and 2.625 g of mannitol were weighed and added into a 50 mL centrifuge tube. 40 mL of PBS was added to dissolve (sonicate for 30 minutes until completely dissolved). The solution was filtered through a 0.22 µm filter, then added to 460 mL of sterile PBS and mixed thoroughly.
• i. Fresh human peripheral blood was collected. K2EDTA was used as the anticoagulant. 1 part anticoagulant with 9 parts blood was mixed, then centrifuged at 500 g for 10 minutes at room temperature to remove the plasma. • ii. Packed red blood cells: 1.5 volumes of PBS were added, then centrifuged at 2000 ×g for 5 minutes at room temperature. After centrifugation, the supernatant was removed. This step was repeated twice. • iii. Diluted red blood cells: 1.5 volumes of PBS were added, then resuspended and mixed thoroughly. • iv. The diluted red blood cells were slowly added to 0.5 volume of 70% isotonic solution (e.g., 7.5 mL of diluted red blood cells + 3 mL of 70% isotonic solution Percoll) and centrifuged at 4000 ×g for 20 minutes at 4°C. • v. The supernatant was removed. The red blood cells at the bottom were washed once with 4-5 mL of PBS to elute the Percoll gel, and then centrifuged at 2000 ×g for 5 minutes at room temperature. • vi. The supernatant was removed. The red blood cells were counted and then diluted in AGAM medium containing 10% FBS to a density of 2 × 10^8 cells/mL for storage at 4°C.
i. The red blood cells were seeded into a 96-well plate at a uniform density of 1 × 10^7 cells/mL, with 100 µL per well. The test compounds (dissolved in DMSO) were diluted and added to the cell culture medium, resulting in final compound concentrations of 3000, 1000, 300, 100, 10, 3, and 1 nM (with 1% DMSO). The cells and compounds were co-cultivated for 3 hours in a 37°C incubator with 5% CO2. Subsequently, the plate was centrifuged at 2000 g for 20 minutes, and the supernatant was discarded. 100 µL of red blood cell lysis buffer was added to the cell pellet, vortexed for 20 minutes, and centrifuged at 4000 g for 5 minutes. The supernatant was collected for analysis. ii. The reaction system was prepared according to the kit instructions (shown as the table below), 10 µL of the reaction system was added to each well of a 384-well plate, and 10 µL of red blood cell lysis buffer was took and mixed well (20 µL reaction system).
iii. A black, transparent-bottomed 384-well plate was placed in a microplate reader to measure fluorescence at 540/590 nm. The fluorescence was read every 2 minutes for 1 hour.
i. The Slope value was calculated over the assay time. Compound activation percentage was calculated using the 1% DMSO well as the control well. Activation percentage = (Slope of compound well / Slope of control well) × 100% ii. Dose-response curve was fit using the logarithmic compound concentration on the X-axis and the percent activation percentage on the Y-axis, the log(agonist) vs. response - variable slope function in GraphPad Prism 5 was used to determine the AC50 value for each compound on PKR activity. Y = min + (max−min)/(1+10^(∧)((LogAC50−X)×Hillslope)). [formula] The PKR agonist effects of the compound of the present disclosure on ex vivo red blood cells from healthy individuals and thalassemia patients were determined using the above assay. The AC50 values measured on ex vivo red blood cells from healthy individuals are as follows (A represents 0-100 nM, B represents 101-300 nM, and C represents 300-1000 nM): […]

Chain of recombinant human PKR (P30613 whole entry): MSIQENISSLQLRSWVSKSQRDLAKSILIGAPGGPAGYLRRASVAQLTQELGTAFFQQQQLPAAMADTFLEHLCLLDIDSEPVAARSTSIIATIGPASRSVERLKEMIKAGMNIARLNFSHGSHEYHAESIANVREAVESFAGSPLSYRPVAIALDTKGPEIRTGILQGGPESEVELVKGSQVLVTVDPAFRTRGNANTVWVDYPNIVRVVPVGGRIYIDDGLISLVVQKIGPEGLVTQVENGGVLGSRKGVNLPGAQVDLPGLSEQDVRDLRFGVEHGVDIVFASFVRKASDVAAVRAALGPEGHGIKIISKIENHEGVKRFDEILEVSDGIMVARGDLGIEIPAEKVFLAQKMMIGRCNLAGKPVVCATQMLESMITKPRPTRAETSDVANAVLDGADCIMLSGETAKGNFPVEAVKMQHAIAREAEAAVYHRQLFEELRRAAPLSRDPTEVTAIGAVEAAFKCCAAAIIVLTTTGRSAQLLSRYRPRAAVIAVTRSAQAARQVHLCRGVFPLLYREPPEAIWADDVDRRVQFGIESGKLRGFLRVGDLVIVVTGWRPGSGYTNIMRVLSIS
T1 sequence (P30613 whole entry): as above

| Compound | AC50 [1] [nM] | AC50 [2] [nM] |
| --- | --- | --- |
| O=C(C(O)c1ccccc1)N1CC(=C2CN(S(=O)(=O)c3ccc(OC(F)F)cc3)C2)C1 (stereo not shown) [Compound 8, 1-(1'-((4-(difluoromethoxy)phenyl)sulfonyl)-1',4'-dihydro-2H,2'H-[3,3'-diazetidinylidene]-1(4H)-yl)-2-hydroxy-2-phenylethan-1-one] | 300 to 1000 | < 100 |
| Cc1ccc(C(CO)C(=O)N2CC(=C3CN(S(=O)(=O)c4ccccn4)C3)C2)cc1 (stereo not shown) [Compound 57, 3-hydroxy-1-(1'-(pyridin-2-ylsulfonyl)-1',4'-dihydro-2H,2'H-[3,3'-diazetidinylidene]-1(4H)-yl)-2-(p-tolyl)propan-1-one] | 101 to 300 | < 100 |
| CN1CCOc2ccc(S(=O)(=O)N3CC(=C4CN(C(=O)[C@H](CO)c5ccccc5)C4)C3)cc21 [Compound 39, (S)-3-hydroxy-1-(1'-((4-methyl-3,4-dihydro-2H-benzo[b][1,4]oxazin-6-yl)sulfonyl)-1',4'-dihydro-2H, 2'H-[3,3'-diazetidinylidene]-1(4H)-yl)-2-phenylpropan-1-one] | < 100 | < 100 |
| CNCC(C(=O)N1CC(=C2CN(S(=O)(=O)c3ccc4c(c3)OCCO4)C2)C1)c1cccc(Cl)c1 (stereo not shown) [Compound 26, 2-(3-chlorophenyl)-1-(1'-((2,3-dihydrobenzo[b][1,4]dioxin-6-yl)sulfonyl)-1',4'-dihydro-2H,2'H-[3,3'-diazetidinylidene]-1(4H)-yl)-3-(methylamino)propan-1-one] | < 100 | 300 to 1000 |
| O=C([C@H](CO)c1ccccc1)N1CC(=C2CN(S(=O)(=O)c3ccc(OC(F)F)cc3)C2)C1 [Compound 7, (S)-1-(1'-((4-(difluoromethoxy)phenyl)sulfonyl)-1',4'-dihydro-2H,2'H-[3,3'-diazetidinylidene]-1(4H)-yl)-3-hydroxy-2-phenylpropan-1-one] |  | < 100 |
| O=C(C(CO)c1cccnc1)N1CC(=C2CN(S(=O)(=O)c3ccc4ncsc4c3)C2)C1 (stereo not shown) [Compound 48, 1-(1'-(benzo[d]thiazol-6-ylsulfonyl)-1',4'-dihydro-2H,2'H-[3,3'-diazetidinylidene]-1(4H)-yl)-3-hydroxy-2-(pyridin-3-yl)propan-1-one] |  | 300 to 1000 |
| O=C([C@H](CO)c1ccc(F)cc1)N1CC(=C2CN(S(=O)(=O)c3ccc4ncsc4c3)C2)C1 [Compound 25, (S)-1-(1'-(benzo[d]thiazol-6-ylsulfonyl)-1',4'-dihydro-2H,2'H-[3,3'-diazetidinylidene]-1(4H)-yl)-2-(4-fluorophenyl)-3-hydroxypropan-1-one] |  | 300 to 1000 |
| O=C([C@H](CO)c1ccccc1)N1CC(=C2CN(S(=O)(=O)c3cnc4c(c3)OCCO4)C2)C1 [Compound 1, (S)-1-(1'-((2,3-dihydro-[1,4]dioxino[2,3-b]pyridin-7-yl)sulfonyl)-1',4'-dihydro-2H,2'H-[3,3'-diazetidinylidene]-1(4H)-yl)-3-hydroxy-2-phenylpropan-1-one] |  | 101 to 300 |
| NC(C(=O)N1CC(=C2CN(S(=O)(=O)c3ccc(OC(F)F)cc3)C2)C1)c1ccc(F)cc1 (stereo not shown) [Compound 22, 2-amino-1-(1'-((4-(difluoromethoxy)phenyl)sulfonyl)-1',4'-dihydro-2H,2'H-[3,3'-diazetidinylidene]-1 (4H)-yl)-2-(4-fluorophenyl)ethan-1-one] |  | < 100 |

Continued, values first:

| AC50 [1] [nM] | AC50 [2] [nM] | Compound |
| --- | --- | --- |
| 101 to 300 | 101 to 300 | O=C(N1CC(=C2CN(S(=O)(=O)c3ccccn3)C2)C1)C1(c2ccccc2)CCOCC1 [Compound 58] |
| 300 to 1000 | 300 to 1000 | O=C(C(CO)c1cccnc1)N1CC(=C2CN(S(=O)(=O)c3ccccn3)C2)C1 (stereo not shown) [Compound 60, 3-hydroxy-1-(1'-(pyridin-2-ylsulfonyl)-1',4'-dihydro-2H,2'H-[3,3'-diazetidinylidene]-1(4H)-yl)-2-(pyridin-3-yl)propan-1-one] |
| < 100 | < 100 | [2H]C([2H])([2H])Oc1ccc(S(=O)(=O)N2CC(=C3CN(C(=O)[C@H](CO)c4ccccc4)C3)C2)nc1 [Compound 91, (S)-3-hydroxy-1-(1'-((5-(methoxy-d3)pyridin-2-yl)sulfonyl)-1',4'-dihydro-2H,2'H-[3,3'-diazetidinylidene]-1(4H)-yl)-2-phenylpropan-1-one] |
| 101 to 300 | 101 to 300 | O=C(C(CF)c1ccccc1)N1CC(=C2CN(S(=O)(=O)c3ccccn3)C2)C1 (stereo not shown) [Compound 73, 3-fluoro-2-phenyl-1-(1'-(pyridin-2-ylsulfonyl)-1',4'-dihydro-2H,2'H-[3,3'-diazetidinylidene]-1(4H)-yl)propan-1-one] |
| < 100 | < 100 | COc1ccc(S(=O)(=O)N2CC(=C3CN(C(=O)[C@H](CO)c4ccc(F)cc4F)C3)C2)nc1 [Compound 87, (S)-2-(2,4-difluorophenyl)-3-hydroxy-1-(1'-((5-methoxypyridin-2-yl)sulfonyl)-1',4'-dihydro-2H,2'H-[3,3'-diazetidinylidene]-1(4H)-yl)propan-1-one] |
| 300 to 1000 | 300 to 1000 | O=C(C1NCc2ccccc21)N1CC(=C2CN(S(=O)(=O)c3ccc4ncsc4c3)C2)C1 (stereo not shown) [Compound 64, (1'-(benzothiazol-6-ylsulfonyl)-1',4'-dihydro-2H,2'H-[3,3'-diazetidinylidene]-1(4H)-yl)(isoindolin-1-yl)methanone] |
| 300 to 1000 | 300 to 1000 | O=C(C(CO)c1ccc(C(F)(F)F)cc1)N1CC(=C2CN(S(=O)(=O)c3ccccn3)C2)C1 (stereo not shown) [Compound 78, 3-hydroxy-1-(1'-(pyridin-2-ylsulfonyl)-1',4'-dihydro-2H,2'H-[3,3'-diazetidinylidene]-1(4H)-yl)-2-(4-(trifluoromethyl)phenyl)propan-1-one] |
| < 100 | < 100 | COc1ccc(S(=O)(=O)N2CC(=C3CN(C(=O)[C@H](CO)c4ccccc4)C3)C2)nc1 [Compound 67, (S)-3-hydroxy-1-(1'-((5-methoxypyridin-2-yl)sulfonyl)-1',4'-dihydro-2H,2'H-[3,3'-diazetidinylidene]-1(4H)-yl)-2-phenylpropan-1-one] |
|  | 101 to 300 | N#Cc1ccc(S(=O)(=O)N2CC(=C3CN(C(=O)[C@H](CO)c4ccccc4)C3)C2)nc1 [Compound 70, (S)-6-((1'-(3-hydroxy-2-phenylpropionyl)-1',4'-dihydro-2H,2'H-[3,3'-diazetidinylidene]-1(4H)-yl)sulfonyl)nicotinonitrile] |
|  | < 100 | O=C(C(CO)c1ccc(F)c(Cl)c1)N1CC(=C2CN(S(=O)(=O)c3ccccn3)C2)C1 (stereo not shown) [Compound 59, 2-(3-chloro-4-fluorophenyl)-3-hydroxy-1-(1'-(pyridin-2-ylsulfonyl)-1',4'-dihydro-2H,2'H-[3,3'-diazetidinylidene]-1(4H)-yl)propan-1-one] |
